Assay results from ChEMBL document CHEMBL3091444, “5-Chlorothiophene-2-carboxylic acid [(S)-2-[2-methyl-3-(2-oxopyrrolidin-1-yl)benzenesulfonylamino]-3-(4-methylpiperazin-1-yl)-3-oxopropyl]amide (SAR107375), a selective and potent orally active dual thrombin and factor Xa inhibitor” (J Med Chem, 2013).

Assays:
[1] = Metabolic stability in Sprague-Dawley rat liver microsomes at 5 uM after 20 mins; format: ADME; conditions: read-out: Stability
[2] = Metabolic stability in Swiss CD1 mouse liver microsomes at 5 uM after 20 mins; format: ADME, Microsome; conditions: read-out: Stability
[3] = Metabolic stability in human liver microsomes at 5 uM after 20 mins; format: ADME; conditions: read-out: Stability
[4] = Oral bioavailability in dog at 10 mg/kg; format: ADME, organism-based, Canis lupus familiaris; conditions: in vivo
[5] = Half life in dog at 10 mg/kg, po; format: ADME, organism-based, Canis lupus familiaris; set-up: dose 10 mg/kg, route oral; conditions: in vivo
[6] = Cmax in dog at 10 mg/kg, po; format: ADME, organism-based, Canis lupus familiaris; set-up: dose 10 mg/kg, route oral; conditions: in vivo
[7] = AUC in dog at 10 mg/kg, po; format: ADME, organism-based, Canis lupus familiaris; set-up: dose 10 mg/kg, route oral; conditions: plasma
[8] = Tmax in dog at 10 mg/kg, po; format: ADME, organism-based, Canis lupus familiaris; set-up: dose 10 mg/kg, route oral; conditions: in vivo
[9] = Half life in dog at 3 mg/kg, iv; format: ADME, organism-based, Canis lupus familiaris; set-up: dose 3 mg/kg, route intravenous; conditions: in vivo
[10] = Cmax in dog at 3 mg/kg, iv; format: ADME, organism-based, Canis lupus familiaris; set-up: dose 3 mg/kg, route intravenous; conditions: in vivo
[11] = Volume of distribution at steady state in dog at 3 mg/kg, iv; format: ADME, organism-based, Canis lupus familiaris; set-up: dose 3 mg/kg, route intravenous; conditions: in vivo, read-out: Vdss
[12] = Clearance in dog at 3 mg/kg, iv; format: ADME, organism-based, Canis lupus familiaris; set-up: dose 3 mg/kg, route intravenous; conditions: in vivo
[13] = AUC in dog at 3 mg/kg, iv; format: ADME, organism-based, Canis lupus familiaris; set-up: dose 3 mg/kg, route intravenous; conditions: plasma
[14] = Oral bioavailability in Sprague-Dawley rat at 10 mg/kg; format: ADME, organism-based; conditions: in vivo
[15] = Half life in Sprague-Dawley rat at 10 mg/kg, po; format: ADME, organism-based; set-up: dose 10 mg/kg, route oral; conditions: in vivo
[16] = Cmax in Sprague-Dawley rat at 10 mg/kg, po; format: ADME, organism-based; set-up: dose 10 mg/kg, route oral; conditions: in vivo
[17] = Tmax in Sprague-Dawley rat at 10 mg/kg, po; format: ADME, organism-based; set-up: dose 10 mg/kg, route oral; conditions: in vivo
[18] = AUC in Sprague-Dawley rat at 10 mg/kg, po; format: ADME, organism-based; set-up: dose 10 mg/kg, route oral; conditions: plasma
[19] = Half life in Sprague-Dawley rat at 3 mg/kg, iv; format: ADME, organism-based; set-up: dose 3 mg/kg, route intravenous; conditions: in vivo
[20] = Volume of distribution at steady state in Sprague-Dawley rat at 3 mg/kg, iv; format: ADME, organism-based; set-up: dose 3 mg/kg, route intravenous; conditions: in vivo, read-out: Vdss
[21] = Cmax in Sprague-Dawley rat at 3 mg/kg, iv; format: ADME, organism-based; set-up: dose 3 mg/kg, route intravenous; conditions: in vivo
[22] = Clearance in Sprague-Dawley rat at 3 mg/kg, iv; format: ADME, organism-based; set-up: dose 3 mg/kg, route intravenous; conditions: in vivo
[23] = AUC in Sprague-Dawley rat at 3 mg/kg, iv; format: ADME, organism-based; set-up: dose 3 mg/kg, route intravenous; conditions: plasma
Liver microsome = assay: Drug metabolism in human liver microsomes assessed as oxidation; format: ADME
[24] = Permeability of the compound across human Caco2 cells; format: ADME, cell-based; conditions: Caco-2, read-out: permeability

remaining at 20 min, 5 µM [1] [%]	remaining at 20 min, 5 µM [2] [%]	remaining at 20 min, 5 µM [3] [%]	Compound	further results
25	25	34	Cc1c(N2CCCC2=O)cccc1S(=O)(=O)N[C@@H](CNC(=O)c1ccc(Cl)s1)C(=O)N1CCN(C)CC1.Cl	bioavailability [4]: 47%; half-life [5]: 2.4 h; Cmax [6]: 1530 ng/mL; AUC [7]: 2600 ng·h/mL; Tmax [8]: 0.5 h; half-life [9]: 1.1 h; Cmax [10]: 3500 ng/mL; Vd [11]: 1.5 L/kg; clearance [12]: 28.3 mL/min/kg; AUC [13]: 1800 ng·h/mL; bioavailability [14]: 21%; half-life [15]: 6.2 h; Cmax [16]: 154 ng/mL; Tmax [17]: 0.25 h; AUC [18]: 360 ng·h/mL; half-life [19]: 6.6 h; Vd [20]: 4.6 L/kg; Cmax [21]: 1300 ng/mL; clearance [22]: 96.7 mL/min/kg; AUC [23]: 510 ng·h/mL
54	45	59	CN1CCN(C(=O)[C@H](CNC(=O)c2ccc(Cl)s2)NS(=O)(=O)c2cccc(N3CCCC3=O)c2Cl)CC1	–
51	68	80	CCc1c(N2CCOCC2=O)cccc1S(=O)(=O)N[C@@H](CNC(=O)c1ccc(Cl)s1)C(=O)N1CCC(O)CC1	–
0	26	52	Cc1c(N2CCOCC2=O)cccc1S(=O)(=O)N[C@@H](CNC(=O)c1ccc(Cl)s1)C(=O)N1CCN(C)CC1	–
63	69	72	CN1CCN(C(=O)[C@H](CNC(=O)c2ccc(Cl)s2)NS(=O)(=O)c2cccc(N3CCOCC3=O)c2Cl)CC1	–
58	18	38	O=C(NC[C@H](NS(=O)(=O)c1cccc(N2CCOCC2=O)c1Cl)C(=O)N1CCC(O)CC1)c1ccc(Cl)s1	–

Continued, compound first:

Compound	remaining at 20 min, 5 µM [1] [%]	remaining at 20 min, 5 µM [2] [%]	remaining at 20 min, 5 µM [3] [%]	further results
CCc1c(N2CCOCC2=O)cccc1S(=O)(=O)N[C@@H](CNC(=O)c1ccc(Cl)s1)C(=O)N1CCOC[C@@H]1C	99	99	99	–
CCc1c(N2CCOCC2=O)cccc1S(=O)(=O)N[C@@H](CNC(=O)c1ccc(Cl)s1)C(=O)N1CCC(OC)CC1	99	98	99	–
CCc1c(-c2ccccn2)cccc1S(=O)(=O)N[C@@H](CNC(=O)c1ccc(Cl)s1)C(=O)N1CCOC[C@@H]1C	65	99	99	Drug metabolism (Liver microsome): Active
Cc1c(N2CCOCC2=O)cccc1S(=O)(=O)N[C@@H](CNC(=O)c1ccc(Cl)s1)C(=O)N1CCOC[C@@H]1C	58	91	74	–
Cc1c(-c2ccccn2)cccc1S(=O)(=O)N[C@@H](CCCc1ccc(N)cn1)C(=O)N1CCC(=C(F)F)CC1	–	–	–	Papp [24]: 9.6 ×10⁻⁶ cm/s
